Measured values published in ChEMBL document CHEMBL1649216, “The diarylquinoline R207910 is bactericidal against Mycobacterium leprae in mice at low dose and administered intermittently” (Antimicrob Agents Chemother, 2009).
Activity calls are given as the source filed them.

Assays:
Format in all cases: functional, organism-based
[1] = test system: Mycobacterium leprae; assay: Antimycobacterial activity against Mycobacterium leprae infected in CBA/J mouse assessed as microbial growth inhibition at 120 mg/kg, po administered once monthly during logarithmic multiplication from day 60 to day 150 post infection measured on day 228 post infection; design: dose 120 mg/kg
[2] = test system: Mycobacterium leprae; assay: Antimycobacterial activity against Mycobacterium leprae infected in CBA/J mouse assessed as microbial growth inhibition at 30 mg/kg, po administered once weekly during logarithmic multiplication from day 60 to day 150 post infection measured on day 302 to 365 post infection; design: dose 30 mg/kg
[3] = test system: Mycobacterium leprae; assay: Antimycobacterial activity against Mycobacterium leprae infected in CBA/J mouse assessed as microbial growth inhibition at 50 mg/kg, po administered once weekly during logarithmic multiplication from day 60 to day 150 post infection measured on day 302 to 365 post infection; design: dose 50 mg/kg
[4] = test system: Mycobacterium leprae; assay: Antimycobacterial activity against Mycobacterium leprae infected in CBA/J mouse assessed as microbial growth inhibition at 100 mg/kg, po administered once weekly during logarithmic multiplication from day 60 to day 150 post infection measured on day 302 to 365 post infection; design: dose 100 mg/kg
[5] = test system: Mycobacterium leprae; assay: Antimycobacterial activity against Mycobacterium leprae infected in CBA/J mouse assessed as microbial growth inhibition at 50 mg/kg, po administered once monthly during logarithmic multiplication from day 60 to day 150 post infection measured on day 302 to 365 post infection; design: dose 50 mg/kg
[6] = test system: Mycobacterium leprae; assay: Antimycobacterial activity against Mycobacterium leprae infected in CBA/J mouse assessed as microbial growth inhibition at 120 mg/kg, po administered once monthly during logarithmic multiplication from day 60 to day 150 post infection measured on day 302 to 365 post infection; design: dose 120 mg/kg
[7] = test system: Mycobacterium leprae; assay: Antimycobacterial activity against Mycobacterium leprae infected in CBA/J mouse assessed as microbial growth inhibition at 1 mg/kg, po administered 5 times weekly during logarithmic multiplication from day 60 to day 150 post infection measured on day 152 post infection; design: dose 1 mg/kg
[8] = test system: Mycobacterium leprae; assay: Antimycobacterial activity against Mycobacterium leprae infected in CBA/J mouse assessed as microbial growth inhibition at 3 mg/kg, po administered 5 times weekly during logarithmic multiplication from day 60 to day 150 post infection measured on day 152 post infection; design: dose 3 mg/kg
[9] = test system: Mycobacterium leprae; assay: Antimycobacterial activity against Mycobacterium leprae infected in CBA/J mouse assessed as microbial growth inhibition at 6 mg/kg, po administered 5 times weekly during logarithmic multiplication from day 60 to day 150 post infection measured on day 152 post infection; design: dose 6 mg/kg
[10] = test system: Mycobacterium leprae; assay: Antimycobacterial activity against Mycobacterium leprae infected in CBA/J mouse assessed as microbial growth inhibition at 12.5 mg/kg, po administered 5 times weekly during logarithmic multiplication from day 60 to day 150 post infection measured on day 152 post infection; design: dose 12.5 mg/kg
[11] = test system: Mycobacterium leprae; assay: Antimycobacterial activity against Mycobacterium leprae infected in CBA/J mouse assessed as microbial growth inhibition at 25 mg/kg, po administered 5 times weekly during logarithmic multiplication from day 60 to day 150 post infection measured on day 152 post infection; design: dose 25 mg/kg
[12] = test system: Mycobacterium leprae; assay: Antimycobacterial activity against Mycobacterium leprae infected in CBA/J mouse assessed as microbial growth inhibition at 25 mg/kg, po administered once weekly during logarithmic multiplication from day 60 to day 150 post infection measured on day 152 post infection; design: dose 25 mg/kg
[13] = test system: Mycobacterium leprae; assay: Antimycobacterial activity against Mycobacterium leprae infected in CBA/J mouse assessed as microbial growth inhibition at 30 mg/kg, po administered once weekly during logarithmic multiplication from day 60 to day 150 post infection measured on day 152 post infection; design: dose 30 mg/kg
[14] = test system: Mycobacterium leprae; assay: Antimycobacterial activity against Mycobacterium leprae infected in CBA/J mouse assessed as microbial growth inhibition at 50 mg/kg, po administered once weekly during logarithmic multiplication from day 60 to day 150 post infection measured on day 152 post infection; design: dose 50 mg/kg
[15] = test system: Mycobacterium leprae; assay: Antimycobacterial activity against Mycobacterium leprae infected in CBA/J mouse assessed as microbial growth inhibition at 100 mg/kg, po administered once weekly during logarithmic multiplication from day 60 to day 150 post infection measured on day 152 post infection; design: dose 100 mg/kg
[16] = test system: Mycobacterium leprae; assay: Antimycobacterial activity against Mycobacterium leprae infected in CBA/J mouse assessed as microbial growth inhibition at 25 mg/kg, po administered once monthly during logarithmic multiplication from day 60 to day 150 post infection measured on day 152 post infection; design: dose 25 mg/kg
[17] = test system: Mycobacterium leprae; assay: Antimycobacterial activity against Mycobacterium leprae infected in CBA/J mouse assessed as microbial growth inhibition at 50 mg/kg, po administered once monthly during logarithmic multiplication from day 60 to day 150 post infection measured on day 152 post infection; design: dose 50 mg/kg
[18] = test system: Mycobacterium leprae; assay: Antimycobacterial activity against Mycobacterium leprae infected in CBA/J mouse assessed as microbial growth inhibition at 100 mg/kg, po administered once monthly during logarithmic multiplication from day 60 to day 150 post infection measured on day 152 post infection; design: dose 100 mg/kg
[19] = test system: Mycobacterium leprae; assay: Antimycobacterial activity against Mycobacterium leprae infected in CBA/J mouse assessed as microbial growth inhibition at 120 mg/kg, po administered once monthly during logarithmic multiplication from day 60 to day 150 post infection measured on day 152 post infection; design: dose 120 mg/kg
[20] = test system: Mycobacterium leprae; assay: Antimycobacterial activity against Mycobacterium leprae infected in CBA/J mouse assessed as microbial growth inhibition at 1 mg/kg, po administered 5 times weekly during logarithmic multiplication from day 60 to day 150 post infection measured on day 228 post infection; design: dose 1 mg/kg
[21] = test system: Mycobacterium leprae; assay: Antimycobacterial activity against Mycobacterium leprae infected in CBA/J mouse assessed as microbial growth inhibition at 3 mg/kg, po administered 5 times weekly during logarithmic multiplication from day 60 to day 150 post infection measured on day 228 post infection; design: dose 3 mg/kg
[22] = test system: Mycobacterium leprae; assay: Antimycobacterial activity against Mycobacterium leprae infected in CBA/J mouse assessed as microbial growth inhibition at 6 mg/kg, po administered 5 times weekly during logarithmic multiplication from day 60 to day 150 post infection measured on day 228 post infection; design: dose 6 mg/kg
[23] = test system: Mycobacterium leprae; assay: Antimycobacterial activity against Mycobacterium leprae infected in CBA/J mouse assessed as microbial growth inhibition at 12.5 mg/kg, po administered 5 times weekly during logarithmic multiplication from day 60 to day 150 post infection measured on day 228 post infection; design: dose 12.5 mg/kg
[24] = test system: Mycobacterium leprae; assay: Antimycobacterial activity against Mycobacterium leprae infected in CBA/J mouse assessed as microbial growth inhibition at 25 mg/kg, po administered 5 times weekly during logarithmic multiplication from day 60 to day 150 post infection measured on day 228 post infection; design: dose 25 mg/kg
[25] = test system: Mycobacterium leprae; assay: Antimycobacterial activity against Mycobacterium leprae infected in CBA/J mouse assessed as microbial growth inhibition at 25 mg/kg, po administered once weekly during logarithmic multiplication from day 60 to day 150 post infection measured on day 228 post infection; design: dose 25 mg/kg
[26] = test system: Mycobacterium leprae; assay: Antimycobacterial activity against Mycobacterium leprae infected in CBA/J mouse assessed as microbial growth inhibition at 30 mg/kg, po administered once weekly during logarithmic multiplication from day 60 to day 150 post infection measured on day 228 post infection; design: dose 30 mg/kg
[27] = test system: Mycobacterium leprae; assay: Antimycobacterial activity against Mycobacterium leprae infected in CBA/J mouse assessed as microbial growth inhibition at 50 mg/kg, po administered once weekly during logarithmic multiplication from day 60 to day 150 post infection measured on day 228 post infection; design: dose 50 mg/kg
[28] = test system: Mycobacterium leprae; assay: Antimycobacterial activity against Mycobacterium leprae infected in CBA/J mouse assessed as microbial growth inhibition at 100 mg/kg, po administered once weekly during logarithmic multiplication from day 60 to day 150 post infection measured on day 228 post infection; design: dose 100 mg/kg
[29] = test system: Mycobacterium leprae; assay: Antimycobacterial activity against Mycobacterium leprae infected in CBA/J mouse assessed as microbial growth inhibition at 25 mg/kg, po administered once monthly during logarithmic multiplication from day 60 to day 150 post infection measured on day 228 post infection; design: dose 25 mg/kg
[30] = test system: Mycobacterium leprae; assay: Antimycobacterial activity against Mycobacterium leprae infected in CBA/J mouse assessed as microbial growth inhibition at 50 mg/kg, po administered once monthly during logarithmic multiplication from day 60 to day 150 post infection measured on day 228 post infection; design: dose 50 mg/kg
[31] = test system: Mycobacterium leprae; assay: Antimycobacterial activity against Mycobacterium leprae infected in CBA/J mouse assessed as microbial growth inhibition at 100 mg/kg, po administered once monthly during logarithmic multiplication from day 60 to day 150 post infection measured on day 228 post infection; design: dose 100 mg/kg

Measured: growth inhibition (GI)

COc1nc2ccc(Br)cc2cc1[C@@H](c1ccccc1)[C@@](O)(CCN(C)C)c1cccc2ccccc12
active: all assays above
